Patent US8912213B2, “Synthesis and use of dual tyrosyl-DNA phosphodiesterase I (TDP1)- topoisomerase I (TOP1) inhibitors” (Purdue Research Foundation, priority 2012, dated 2014)
Entries after “also recorded” stand apart in the source; their conditions may differ. Read-outs that look alike come from different tables or passages of the source.

Assays:
[1] = target: Tdp1 (Homo sapiens (Human), UniProt Q9NUW8); assay: Gel-based assay measuring the inhibition of recombinant Tdp1; format: biochemical;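 further: 5′-32P-labeled single-stranded DNA with 3′-phosphotyrosine incubated with 5 pM enzyme for 15 min at room temperature, inhibition seen as loss of 3′-phosphate product band by densitometry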
Tdp1, sequence (Q9NUW8 whole entry): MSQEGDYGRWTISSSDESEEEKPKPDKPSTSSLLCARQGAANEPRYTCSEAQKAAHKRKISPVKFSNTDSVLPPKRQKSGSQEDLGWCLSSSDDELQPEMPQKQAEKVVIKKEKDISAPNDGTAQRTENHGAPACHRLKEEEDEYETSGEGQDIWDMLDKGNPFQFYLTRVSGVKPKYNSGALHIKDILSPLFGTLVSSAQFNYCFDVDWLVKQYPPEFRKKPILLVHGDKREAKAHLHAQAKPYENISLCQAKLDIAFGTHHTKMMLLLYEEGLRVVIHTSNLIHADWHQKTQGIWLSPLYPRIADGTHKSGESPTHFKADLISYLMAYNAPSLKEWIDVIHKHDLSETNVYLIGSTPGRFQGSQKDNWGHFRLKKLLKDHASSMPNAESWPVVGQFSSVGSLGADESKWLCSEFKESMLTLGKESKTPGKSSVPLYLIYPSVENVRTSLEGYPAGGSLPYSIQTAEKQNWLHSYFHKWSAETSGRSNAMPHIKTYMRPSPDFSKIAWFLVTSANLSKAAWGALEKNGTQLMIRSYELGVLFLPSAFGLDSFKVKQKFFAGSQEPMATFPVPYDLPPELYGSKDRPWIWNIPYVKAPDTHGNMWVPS
Protocol: Tdp1 inhibitory activity was measured by the drug's ability to inhibit the hydrolysis of the phosphodiester linkage between tyrosine and the 3′-end of the DNA substrate, and to prevent the generation of an oligonucleotide with a free 3′-phosphate (N14P). Therefore, the disappearance of the gel band for N14P indicated Tdp1 inhibition.
Gel-Based Assay Measuring the Inhibition of Recombinant Tdp1. A 5′-[^32P]-labeled single-stranded DNA oligonucleotide containing a 3′-phosphotyrosine (N14Y) was generated as described by Dexheimer et al. The DNA substrate was then incubated with 5 pM recombinant Tdp1 in the absence or presence of inhibitor for 15 min at room temperature in a buffer containing 50 mM Tris HCl, pH 7.5, 80 mM KCl, 2 mM EDTA, 1 mM DTT, 40 μg/ml BSA and 0.01% Tween-20. […] Gel images were scanned using a Typhoon 8600 (GE Healthcare) and densitometric analyses were performed using the ImageQuant software (GE Healthcare).

[2] = target: Human recombinant Top1 (Homo sapiens (Human), UniProt P11387); assay: Topoisomerase I-mediated DNA cleavage reactions; format: biochemical; conditions: for Top1 (compound-induced DNA cleavage, semiquantitative scale): series (B), relative to 1 μM camptothecin (90) or MJ-III-65 (91); for Top1 (compound-induced DNA cleavage due to Top1 inhibition): semiquantitative;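 on all read-outs here: 3′-end radiolabeled DNA substrate (about 2 nM) incubated with recombinant Top1 and compound for 20 min at 25 °C, cleavage products resolved by denaturing PAGE and phosphoimaging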
Human recombinant Top1, sequence (P11387 whole entry): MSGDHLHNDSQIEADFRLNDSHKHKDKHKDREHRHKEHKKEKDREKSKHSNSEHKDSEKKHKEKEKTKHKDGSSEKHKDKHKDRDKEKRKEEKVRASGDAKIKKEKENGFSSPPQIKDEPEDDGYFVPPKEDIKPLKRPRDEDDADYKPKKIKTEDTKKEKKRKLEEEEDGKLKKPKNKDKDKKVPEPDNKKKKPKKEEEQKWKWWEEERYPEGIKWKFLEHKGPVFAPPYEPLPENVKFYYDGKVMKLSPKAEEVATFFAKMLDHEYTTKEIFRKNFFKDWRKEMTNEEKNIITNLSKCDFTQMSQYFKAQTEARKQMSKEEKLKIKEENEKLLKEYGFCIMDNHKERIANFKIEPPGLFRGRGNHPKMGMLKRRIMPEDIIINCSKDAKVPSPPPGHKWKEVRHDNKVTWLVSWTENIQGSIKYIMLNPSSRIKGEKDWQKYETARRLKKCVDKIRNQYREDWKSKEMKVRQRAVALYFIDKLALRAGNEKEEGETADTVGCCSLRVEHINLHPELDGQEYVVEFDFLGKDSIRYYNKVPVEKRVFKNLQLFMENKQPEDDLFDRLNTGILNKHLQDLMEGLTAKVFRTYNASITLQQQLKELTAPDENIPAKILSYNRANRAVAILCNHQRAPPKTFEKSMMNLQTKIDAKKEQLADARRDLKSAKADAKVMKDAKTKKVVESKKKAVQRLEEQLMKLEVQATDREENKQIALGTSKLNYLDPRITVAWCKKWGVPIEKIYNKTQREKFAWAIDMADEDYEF
Protocol: Additionally, all indenoisoquinoline sulfonates and sulfonamides were tested for Top1 cleavage complex poisoning in a Top1-mediated DNA cleavage assay.
Topoisomerase I-Mediated DNA Cleavage Reactions. Human recombinant Top1 was purified from baculovirus as previously described. DNA cleavage reactions were prepared as previously reported with the exception of the DNA substrate. […] Unincorporated [^32P]dGTP was removed using mini Quick Spin DNA columns (Roche, Indianapolis, Ind.), and the eluate containing the 3′-end-labeled DNA substrate was collected. Approximately 2 nM radiolabeled DNA substrate was incubated with recombinant Top1 in 20 μL of reaction buffer [10 mM Tris-HCl (pH 7.5), 50 mM KCl, 5 mM MgCl2, 0.1 mM EDTA, and 15 μg/mL BSA] at 25° C. for 20 min in the presence of various concentrations of compounds. The reactions were terminated by adding SDS (0.5% final concentration) followed by the addition of two volumes of loading dye (80% formamide, 10 mM sodium hydroxide, 1 mM sodium EDTA, 0.1% xylene cyanol, and 0.1% bromphenol blue). Aliquots of each reaction mixture were subjected to 20% denaturing PAGE. Gels were dried and visualized by using a phosphoimager and ImageQuant software (Molecular Dynamics).
Topoisomerase I-Mediated DNA Cleavage Reactions. Top1 reactions were performed as recently described. […] The reactions were terminated by adding SDS (0.5% final concentration) followed by the addition of two volumes of loading dye (80% formamide, 10 mM sodium hydroxide, 1 mM sodium EDTA, 0.1% xylene cyanol, and 0.1% bromphenol blue). Reactions were subjected to 20% denaturing PAGE. Gels were dried and visualized by using a Typhoon 8600 and ImageQuant software (Molecular Dynamics).

[3] = series (A), gel-based assay, rec. human Tdp1, read-out: IC50 (μM) recombinant Tdp1

Row | SMILES | IC50 [1] | Top1 (compound-induced DNA cleavage, semiquantitative scale) [2] | further results
1 | NCCCn1c2c(c3ccccc3c1=O)C(=O)c1ccccc1-2 [Compound 1 of (B)] | 12 to 37 µM |  | 
2 | COC(=O)C(=O)Nc1ccc2c3c(n(C)c(=O)c2c1)-c1ccccc1C3=O [Compound 9 of (B), Methyl 2-[(6-Methyl-5,11-dioxo-6,11-dihydro-5H-indeno[1,2-c]isoquinolin-3-yl)amino]-2-oxoacetate] | > 111 µM | 0 | Tdp1 inhibitory activity (in words) [1]: inactive
3 | COC(=O)CC(=O)Nc1ccc2c3c(n(C)c(=O)c2c1)-c1ccccc1C3=O [Compound 10 of (B), Methyl 3-[(6-Methyl-5,11-dioxo-6,11-dihydro-5H-indeno[1,2-c]isoquinolin-3-yl)amino]-3-oxopropanoate] | > 111 µM | 0 | 
4 | COC(=O)CCC(=O)Nc1ccc2c3c(n(C)c(=O)c2c1)-c1ccccc1C3=O [Compound 11 of (B), Methyl 4-[(6-Methyl-5,11-dioxo-6,11-dihydro-5H-indeno[1,2-c]isoquinolin-3-yl)amino]-4-oxobutanoate] | > 111 µM | (+) | 
5 | COC(=O)CCCC(=O)Nc1ccc2c3c(n(C)c(=O)c2c1)-c1ccccc1C3=O [Compound 12 of (B), Methyl 5-[(6-Methyl-5,11-dioxo-6,11-dihydro-5H-indeno[1,2-c]isoquinolin-3-yl)amino]-5-oxopentanoate] | > 111 µM | + | 
6 | COC(=O)CCCCC(=O)Nc1ccc2c3c(n(C)c(=O)c2c1)-c1ccccc1C3=O [Compound 13 of (B), Methyl 6-[(6-Methyl-5,11-dioxo-6,11-dihydro-5H-indeno[1,2-c]isoquinolin-3-yl)amino]-6-oxohexanoate] | > 111 µM | 0 | 
7 | Cn1c2c(c3ccc(NC(=O)CC(=O)O)cc3c1=O)C(=O)c1ccccc1-2 [Compound 15 of (B), 3-[(6-Methyl-5,11-dioxo-6,11-dihydro-5H-indeno[1,2-c]isoquinolin-3-yl)amino]-3-oxopropanoic Acid] | > 111 µM |  | Tdp1 inhibitory activity (in words) [1]: inactive
8 | COC(=O)CCC(=O)Nc1ccc2c3c(n(CCCN)c(=O)c2c1)-c1ccccc1C3=O [Compound 24 of (B), Methyl 4-[(6-(3-Aminopropyl)-5,11-dioxo-6,11-dihydro-5H-indeno[1,2-c]isoquinolin-3-yl)amino]-4-oxobutanoate] | 37 to 111 µM | (+) | 
9 | Cl.NCCCn1c2c(c3ccc(NC(=O)C(=O)O)cc3c1=O)C(=O)c1ccccc1-2 [Compound 32 of (B), 2-[(6-(3-Aminopropyl)-5,11-dioxo-6,11-dihydro-5H-indeno[1,2-c]isoquinolin-3-yl)amino]-2-oxoacetic Acid Hydrochloride] | > 111 µM | + | 
10 | Cl.NCCCn1c2c(c3ccc(NC(=O)CC(=O)O)cc3c1=O)C(=O)c1ccccc1-2 [Compound 33 of (B), 3-[(6-(3-Aminopropyl)-5,11-dioxo-6,11-dihydro-5H-indeno[1,2-c]isoquinolin-3-yl)amino]-3-oxopropanoic Acid Hydrochloride] | > 111 µM | + | 
11 | Cl.NCCCn1c2c(c3ccc(NC(=O)CCC(=O)O)cc3c1=O)C(=O)c1ccccc1-2 [Compound 34 of (B), 4-[(6-(3-Aminopropyl)-5,11-dioxo-6,11-dihydro-5H-indeno[1,2-c]isoquinolin-3-yl)amino]-4-oxobutanoic Acid Hydrochloride] | > 111 µM | + | 
12 | Cl.NCCCn1c2c(c3ccc(NC(=O)CCCC(=O)O)cc3c1=O)C(=O)c1ccccc1-2 [Compound 35 of (B), 5-[(6-(3-Aminopropyl)-5,11-dioxo-6,11-dihydro-5H-indeno[1,2-c]isoquinolin-3-yl)amino]-5-oxopentanoic Acid Hydrochloride] | > 111 µM | 0 | 
13 | Cl.NCCCn1c2c(c3ccc(NC(=O)CCCCC(=O)O)cc3c1=O)C(=O)c1ccccc1-2 [Compound 36 of (B), 6-[(6-(3-Aminopropyl)-5,11-dioxo-6,11-dihydro-5H-indeno[1,2-c]isoquinolin-3-yl)amino]-6-oxohexanoic Acid Hydrochloride] | > 111 µM | + | 
14 | CCOC(=O)CNc1ccc2c3c(n(C)c(=O)c2c1)-c1ccccc1C3=O [Compound 38 of (B), Ethyl 2-[(6-Methyl-5,11-dioxo-6,11-dihydro-5H-indeno[1,2-c]isoquinolin-3-yl)amino]acetate] | > 111 µM | 0 | Tdp1 inhibitory activity (in words) ([1]; listed as 38): inactivity; also recorded: inactive
15 | Cn1c2c(c3ccc(NCC(=O)O)cc3c1=O)C(=O)c1ccccc1-2 [Compound 41 of (B), 2-[(6-Methyl-5,11-dioxo-6,11-dihydro-5H-indeno[1,2-c]isoquinolin-3-yl)-amino]acetic Acid] | > 111 µM | 0 | Tdp1 inhibitory activity (in words) ([1]; listed as 41): inactivity; also recorded: inactive
16 | CC(C)(C)OC(=O)NCCCn1c2c(c3ccc(NCC(=O)O)cc3c1=O)C(=O)c1ccccc1-2 [Compound 42 of (B), 2-((6-(3-((tert-Butoxycarbonyl)amino)propyl)-5,11-dioxo-6,11-dihydro-5H-indeno[1,2-c]isoquinolin-3-yl)amino)acetic Acid] | > 111 µM | 0 | Tdp1 inhibitory activity (in words) [1]: inactivity
17 | COc1ccc2c(c1)-c1c(c3ccc([N+](=O)[O-])cc3c(=O)n1CCCBr)C2=O [Compound 49 of (B), 6-(3-Bromopropyl)-5,6-dihydro-8-methoxy-3-nitro-5,11-dioxo-11H-indeno[1,2-c]isoquinoline] | > 111 µM | +++ | Tdp1 inhibitory activity (in words) [1]: very weak or inactive
18 | COc1ccc2c(c1)-c1c(c3ccc([N+](=O)[O-])cc3c(=O)n1CCCN=[N+]=[N-])C2=O [Compound 50 of (B), 6-(3-Azidopropyl)-5,6-dihydro-8-methoxy-3-nitro-5,11-dioxo-11H-indeno[1,2-c]isoquinoline] | > 111 µM | + | Tdp1 inhibitory activity (in words) [1]: very weak or inactive
19 | COc1ccc2c(c1)-c1c(c3ccc([N+](=O)[O-])cc3c(=O)n1CCCN1CCOCC1)C2=O [Compound 53 of (B), 8-Methoxy-6-(3-morpholinopropyl)-3-nitro-5H-indeno[1,2-c]isoquinoline-5,11(6H)-dione] | > 111 µM | ++ | Tdp1 inhibitory activity (in words) [1]: very weak or inactive
20 | Cl.NCCCCn1c2c(c3ccccc3c1=O)C(=O)c1ccccc1-2 [Compound 71 of (A)] |  |  | Top1 inhibition (semiquantitative scale) ([2]; series (A), relative to 1 μM camptothecin): +++ (between 75% and 95% activity)
21 | Cl.NCCCCCCCCCCCn1c2c(c3ccccc3c1=O)C(=O)c1ccccc1-2 [Compound 78 of (A)] |  |  | Top1 (compound-induced DNA cleavage due to Top1 inhibition) ([2]; relative to 1 μM camptothecin): + (between 20 and 50%, activity); IC50 [1, 3]: 13 µM
22 | Cl.NCCCCCCCCCCCCn1c2c(c3ccccc3c1=O)C(=O)c1ccccc1-2 [Compound 79 of (A)] |  |  | Top1 (compound-induced DNA cleavage due to Top1 inhibition) ([2]; relative to 1 μM camptothecin): 0/+; IC50 [1, 3]: 15 µM
